Measurements as given in US12625141B2, “Fluorescent dye, preparation method and uses thereof” (FLUORESCENCE DIAGNOSIS (SHANGHAI) BIOTECH COMPANY LTD., priority 2019, dated 2026).

Assays:
[1] = Fluorescence emission in glycerol versus methanol (viscosity response); assay type: physicochemical; conditions: for Glycerol/methanol fluorescence intensity ratio: 1×10^-5 M in glycerol and methanol, maximum excitation wavelength of each dye; for Emission (nm): 1×10^-5 M, maximum excitation wavelength of each fluorescent dye
[2] = tested on: F30-8Pepper-5 RNA aptamer; test: Binding to RNA aptamer, optical properties after binding; conditions: for Em/nm / Ex/nm / ε / QY (−): after binding to RNA aptamer; for QY (−): relative method with Rhodamine 6G as the standard; for Kd: binding to RNA aptamer; for Activation Multiple: fluorescence activation after binding to RNA aptamer
[3] = tested on: RNA aptamer in cells; test: Labeling intracellular RNA aptamers in cells; assay type: cell-based; conditions: for Fluorescence of cells not expressing the RNA aptamer: cells not expressing the RNA aptamer (FIG. 17B); for Fluorescence of cells transcribing the RNA aptamer: cells transcribing the RNA aptamer (FIG. 17A)
[4] = tested on: ACTB-4Pepper RNA aptamer (skeleton protein mRNA) in 293T/17 cell line; test: Labeling intracellular mRNA, flow detection; assay type: cell-based; conditions: 0.2 μM in PBS, incubated for 5 minutes
Source text: FIGS. 18A and 18B are the application of molecular rotors III-3, III-43 in labeling intracellular mRNA.

## CN(C)c1cc2sc(/C=C(\C#N)c3ccc(C#N)cc3)cc2s1 [III-19]
[1]
  Glycerol/methanol fluorescence intensity ratio: 991
  Emission (nm): 620 nm

## CN(C)c1cc2sc3cc(/C=C(\C#N)c4ccc([S+](C)[O-])cc4)sc3c2s1 (centres unmarked) [III-30]
[1]
  Glycerol/methanol fluorescence intensity ratio: 756
  Emission (nm): 660 nm

## N#C/C(=C\c1ccc(-c2ccc(N3CCOCCOCCOCCOCC3)cc2)s1)c1ccc(C#N)cc1 [III-24]
[1]
  Glycerol/methanol fluorescence intensity ratio: 596
  Emission (nm): 662 nm

## CN1CCc2cc(/C=C(\C#N)c3ccc(C#N)cc3)ccc21 [III-16]
[1]
  Glycerol/methanol fluorescence intensity ratio: 491
  Emission (nm): 555 nm

## CN(CCO)c1cnc(/C=C(\C#N)c2ccc(C#N)cc2)cn1 [III-6]
[2]
  Em/nm: 497 nm
  Ex/nm: 435 nm
  ε: 54700 M⁻¹ cm⁻¹
  QY (−): 0.57
  Kd: 6.7 nM
  Activation Multiple: 16601
[3]
  Fluorescence of cells not expressing the RNA aptamer: no fluorescence
  Fluorescence of cells transcribing the RNA aptamer: bright fluorescence
[1]
  Glycerol/methanol fluorescence intensity ratio: 1148
  Emission (nm): 490 nm

## CN(CCO)c1cc2c(s1)-c1sc(/C=C(\C#N)c3ccc(S(N)(=O)=O)cc3)cc1[Si]2(C)C [III-32]
[1]
  Glycerol/methanol fluorescence intensity ratio: 817
  Emission (nm): 690 nm

## CN(C)CCN(C)c1cnc(/C=C(\C#N)c2ccc(C#N)cc2)nc1 [III-12]
[1]
  Glycerol/methanol fluorescence intensity ratio: 855
  Emission (nm): 542 nm

## CCN(CC)c1ccc(-c2ccc(/C=C(\C#N)c3ccc(C#N)cc3)s2)s1 [III-25]
[1]
  Glycerol/methanol fluorescence intensity ratio: 783
  Emission (nm): 678 nm

## CNc1ccc2cc(/C=C(\C#N)c3ccc(C#N)cc3)sc2c1 [III-17]
[1]
  Glycerol/methanol fluorescence intensity ratio: 828
  Emission (nm): 587 nm

## CN(C)c1ccc(-c2ccc(/C=C(\C#N)c3ccc(C#N)cc3)s2)cc1 [III-23]
[1]
  Glycerol/methanol fluorescence intensity ratio: 687
  Emission (nm): 661 nm

## CCOC(=O)c1ccc(/C(C#N)=C/c2cc3sc4cc(N(C)C)sc4c3s2)cc1 [III-29]
[1]
  Glycerol/methanol fluorescence intensity ratio: 684
  Emission (nm): 665 nm

## CN(C)c1ccc(/C=C(\C#N)c2ccc(C#N)cc2)nc1 [III-10]
[1]
  Glycerol/methanol fluorescence intensity ratio: 1620
  Emission (nm): 520 nm

## CN(CCO)c1ccc(/C=C(\C#N)c2nc3ccccc3s2)cc1 [III-43, reference compound]
[4]
  Background fluorescence in cells: higher than III-3
  Labeling of skeleton protein mRNA in cell lines expressing target RNA: unclear whether ACTB was expressed

## CN(CCO)c1cc2sc(/C=C(\C#N)c3ccc(C#N)cc3)cc2s1 [III-21]
[2]
  Em/nm: 620 nm
  Ex/nm: 577 nm
  ε: 10000 M⁻¹ cm⁻¹
  QY (−): 0.58
  Kd: 6.1 nM
  Activation Multiple: 12600
[3]
  Fluorescence of cells not expressing the RNA aptamer: no fluorescence
  Fluorescence of cells transcribing the RNA aptamer: bright fluorescence
[1]
  Glycerol/methanol fluorescence intensity ratio: 544
  Emission (nm): 620 nm

## CN(CCO)c1ccc2cc(/C=C(\C#N)c3ccc(C#N)cc3)sc2c1 [III-18]
[2]
  Em/nm: 599 nm
  Ex/nm: 515 nm
  ε: 54400 M⁻¹ cm⁻¹
  QY (−): 0.43
  Kd: 18 nM
  Activation Multiple: 708
[3]
  Fluorescence of cells not expressing the RNA aptamer: no fluorescence
  Fluorescence of cells transcribing the RNA aptamer: bright fluorescence
[1]
  Glycerol/methanol fluorescence intensity ratio: 978
  Emission (nm): 595 nm

## CCN(CC)c1cc2sc(/C=C(\C#N)c3ccc(C#N)cc3)cc2s1 [III-20]
[1]
  Glycerol/methanol fluorescence intensity ratio: 836
  Emission (nm): 620 nm
